Assay results taken from publication PMC10045593, “Ubiquitin-Specific Proteases as Potential Therapeutic Targets in Bladder Cancer—In Vitro Evaluation of Degrasyn and PR-619 Activity Using Human and Canine Models” (Biomedicines, 2023).
“And” between values parts separate entries of the source, which are not always exact repeats. Equal entries are not always repeated.

How the values were obtained:
[1] = system: γH2AX in canine BC cell lines (K9TCC-PU-NK, RDSVS-TCC1); test: Western blot for γH2AX (DNA damage); assay type: cell-based; conditions: 24 h
Procedure: (§1) Western blot was performed to assess the expression of USP5, USP9X, and USP14 in analyzed cell lines. After 24 h of incubation with increasing concentrations of Degrasyn and PR-619, the expression of proteins involved in apoptosis (Bcl-2 and Bcl-xl) and a marker of DNA damage (γH2A.X) was also evaluated. Briefly, cells were rinsed with cold phosphate-buffered saline (PBS), suspended in lysis buffer (50 mM Tris-HCl pH 7.5, 100 mM NaCl, 1% NP-40, protease inhibitors set), and incubated for 20 min on ice. Subsequently, after centrifuging at 10,000 rpm at 4 °C for 12 min, sodium dodecyl sulfate (SDS) sample buffer was added to […]. After boiling for 5 min at 95 °C, the samples were subjected to SDS-polyacrylamide gel electrophoresis on 8–15% gel. For USP5, USP9X, USP14, γH2A.X, Bcl-2, and Bcl-xl expression analysis, transfers onto nitrocellulose membranes were performed using a Semidry Transfer Cell or wet transfer method (Bio-Rad, Hercules, CA, USA). After transfer, the membranes were blocked with 1% casein in TBS (or 3% BSA for γH2Ax) at room temperature for 1 h. […]

RDSVS-TCC1 cell line [2] = test: MTT cell proliferation assay; assay type: cell-based, canine; conditions: highest concentration used (20 μM)
Procedure: (§2) Cell proliferation was determined using the 3-(4,5-dimethylthiazol-2-yl)-2,5-diphenyltetrazolium bromide (MTT) assay (Sigma-Aldrich, Steinheim, Germany). Cells were plated at a density of 1 × 10^5 cells per mL in 96-well plates (Thermo Fisher Scientific, Roskilde, Denmark) and allowed to attach overnight. Subsequently, Degrasyn and PR-619 were added in increasing concentrations (0.6, 1.25, 2.5, 5, 10, and 20 μM). After incubation for 24, 48, and 72 h with either the compounds or in the medium alone, 20 μL of MTT solution (5 mg/mL) was added to each well. After an additional 4 h, 80 μL of the lysis buffer (225 mL DMF, 67.5 g SDS, and 275 mL distilled water) was added to each well. After dissolving the content, the absorbance was measured at a […] of 570 nm using a spectrophotometric microplate reader Spark (Tecan). The values were obtained from 3 independent experiments (different plates, different days). Based on the results, the concentration that inhibited 50% of the cell proliferation (IC50) was calculated for all incubation intervals.

K9TCC-PU-NK cell line [3] = test: MTT cell proliferation assay; assay type: cell-based, canine; conditions: highest concentration used (20 μM)
Procedure: as §2

[4] = system: Bcl-xl in all cell lines (SV-HUC-1, T24, K9TCC-PU-NK, RDSVS-TCC1); test: Western blot for Bcl-xl expression; assay type: cell-based, human and canine; conditions: 24 h
Procedure: as §1

RDSVS-TCC1 cell line [5] = test: Caspase 3/7 activation flow cytometry assay; assay type: cell-based, canine; conditions: RDSVS-TCC1, 24 h
Procedure: (§3) Subsequently, to assess caspases 3/7 activation, the cells were incubated with medium alone or with increasing concentrations of compounds (Degrasyn, PR-619) in conditions similar to the previous test. Following cell collection, the cells were twice PBS-washed and stained in accordance with the manufacturer’s instructions. For active caspase 3/7 detection, CellEventCaspase-3/7 Green Detection Reagent Solution was added to the samples. The cells were then suspended 1 more time in the wash buffer after being washed twice. For flow cytometric analysis, a flow cytometers (FACS Calibur, Becton Dickinson, Biosciences, San Jose, CA, USA; CytoFlex, Beckman Coulter, CA, USA) were used, and CellQuest 3.lf (Becton Dickinson, San Jose, CA, USA) and CytExpert 2.4 (Beckman Coulter, CA, USA) software were used for data analysis. The presented results were obtained from three independent experiments.

K9TCC-PU-NK cell line [6] = test: Caspase 3/7 activation flow cytometry assay; assay type: cell-based, canine; conditions: 24 h
Procedure: as §3

[7] = system: USP5 protein in T24 cells; test: Western blot for USP5 expression; assay type: cell-based, human; conditions: T24, 24 h; Degrasyn 0.6, 1.25, 2.5 μM; PR-619 1.25, 2.5, 5 μM
Procedure: as §1

γH2AX in T24 cell line = test: Western blot for γH2AX (DNA damage); assay type: cell-based, human; conditions: T24, 24 h
Procedure: as §1

SV-HUC-1 cell line = test: MTT cell proliferation assay; assay type: cell-based, human; conditions: for cells killed at the highest concentration: SV-HUC-1, MTT, highest concentration used (20 μM)
Procedure: as §2

T24 cell line = test: MTT cell proliferation assay; assay type: cell-based, human; conditions: for cells killed at the highest concentration: T24, MTT, highest concentration used (20 μM)
Procedure: as §2

[8] = 5 μM (highest concentration of Degrasyn)
[9] = highest concentrations of the drug
[10] = 10 μM (highest concentration of PR-619)

SMILES | cells killed at the highest concentration (RDSVS-TCC1 cell line [2]) | cells killed at the highest concentration (K9TCC-PU-NK cell line [3]) | percentage of cells with active caspase 3/7 (RDSVS-TCC1 cell line [5]; 2.5 μM) | percentage of cells with active caspase 3/7 (RDSVS-TCC1 cell line [5]; [8]) | percentage of cells with active caspase 3/7 (K9TCC-PU-NK cell line [6]; 2.5 μM) | percentage of cells with active caspase 3/7 (K9TCC-PU-NK cell line [6]; [8]) | USP5 protein expression [7] | cells killed at the highest concentration (SV-HUC-1 cell line) | cells killed at the highest concentration (T24 cell line) | further results
CCC[C@H](NC(=O)/C(C#N)=C/c1cccc(Br)n1)c1ccccc1 [Degrasyn] | ~100% | ~100% | 11.7% | 22.5 ± 4.3% and 22.5% | 7.1% | 11.9 ± 1.8% and 11.9% | clearly decreased | ~100% | ~100% | expression of γH2AX ([1]; only 5 µM): high expression; Bcl-xl expression ([4]; all cell lines, 5 μM): slightly reduced; percentage of cells with active caspase 3/7 (RDSVS-TCC1 cell line [5]; 1.25 μM): 5.9%; percentage of cells with active caspase 3/7 (K9TCC-PU-NK cell line [6]; 1.25 μM): 5.4%; expression of γH2AX (γH2AX in T24 cell line; 2.5 µM and 5 µM): high expression; IC50 (SV-HUC-1 cell line; SV-HUC-1, 24 h exposure, MTT, read-out: IC50 (concentration that inhibited 50% of the cell proliferation)): 2.33 µM; IC50 (T24 cell line; T24, 24 h exposure, MTT, read-out: IC50 (concentration that inhibited 50% of the cell proliferation)): 3.07 µM
N#CSc1cc(SC#N)c(N)nc1N [PR-619] | ~100% | ~100% | 6.1% | 12.9% | 6.4% | 9.9% | no visible effect | ~100% | ~100% | amount of γH2AX [1, 9]: only a slight visible increase; Bcl-xl expression ([4]; analyzed cell lines, increasing concentrations): No clearly visible changes; percentage of cells with active caspase 3/7 (RDSVS-TCC1 cell line [5]; [10]): 16.2 ± 7.4% and 16.2%; percentage of cells with active caspase 3/7 (K9TCC-PU-NK cell line [6]; [10]): 13.3 ± 3.3% and 13.2%; amount of γH2AX (γH2AX in T24 cell line; [9]): only a slight visible increase
